Assay [1] deals with thrombin generation in human PRP. The following applies: Example 2; Edoxaban 40, 80 ng/mL; Ticagrelor 3 μg/mL; ADP 10 μM, TF 0.25 pM.
Description: The obtained blood was centrifuged at room temperature at 150×g for 10 minutes, so that a supernatant was obtained as PRP. The residue obtained after separation of the PRP was centrifuged at room temperature at 2000×g for 10 minutes, so that a supernatant was obtained as platelet poor plasma (hereinafter also referred to as “PPP”). The PRP was diluted with the PPP, so that the number of platelets in the PRP could be 2×10^5 platelets/μL. The obtained PRP was left at 16° C. for 30 minutes or more, and it was then used for the measurement of thrombin generation.
10 μL of a 1% DMSO-containing saline was added to a 96-well plate, and 70 μL of the above obtained human PRP was then added thereto. […]
Five to seven minutes later, 20 μL of the heated FluCa-kit liquid (manufactured by Thrombinoscope BV) was added to the well, so that the reaction was initiated. Using a fluorophotometer (Fluoroskan Ascent, manufactured by Thermo Scientific), the fluorescence intensity at ex 390 nm/em 460 nm was measured at 37° C. for 150 minutes, and using Thrombinoscope software (manufactured by Thrombinoscope BV), Lag time (min), Time to Peak (min), ETP (nM×min), Peak (nM), and MaxR (nM/min) were calculated. […]
Subsequently, individual parameters were calculated in the same manner as that in the above “Studies regarding measurement conditions.” […]
The test system is the same in assay [2]. As to the kind of experiment: Studies regarding measurement conditions: ADP alone on thrombin generation in human PRP. The format is cell-based. To be noted: ADP final concentration 5, 10 or 20 μM, no TF.

Entries after “also recorded” stand apart in the source; their conditions may differ.

As to `CCCSc1nc(N[C@@H]2C[C@H]2c2ccc(F)c(F)c2)c2nnn([C@@H]3C[C@H](OCCO)[C@@H](O)[C@H]3O)c2n1` [Ticagrelor], the “Effect on thrombin generation, agent used alone compared to controls” value in assay [1] is “suppresses the generation of thrombin; also recorded: significantly suppresses thrombin generation, in terms of Peak, Time to Peak, and MaxR”. As for `Nc1ncnc2c1ncn2[C@@H]1O[C@H](COP(=O)(O)OP(=O)(O)O)[C@@H](O)[C@H]1O` [ADP, adenosine diphosphate], the “Effect of ADP alone on thrombin generation” value in assay [2] was “provokes thrombin generation”.

These data come from patent US10266871B2, “Measurement method for thrombin production” (DAIICHI SANKYO COMPANY, LIMITED, priority 2012, dated 2019).
